Experimental data taken from publication PMC11448502, “Cryo-EM structures of the human P2X1 receptor reveal subtype-specific architecture and antagonism by supramolecular ligand-binding” (Nature Communications, 2024).
Several values for one entry are separate records, joined by “and”; a condition that tells them apart may be missing. Equal values may be shown once.

Tests used:
P2X1 = test system: P2X1; design: method as in doi: 10.1111/bph.15299; conditions: reviewer comment, ref doi: 10.1111/bph.15299, read-out: EC50 of ATP; cited from earlier work
hP2X1 R139A = biological target: T1, hP2X1 R139A (Homo sapiens, UniProt P51575, R139A); experiment: NF449 inhibition dose response (IC50), TEVC in oocytes; type: cell-based
T1 construct: hP2X1 mRNA that was made from linearized full-length wild-type or mutant pcDNA 3.1x; expressed in transfected cells; host or cells: Xenopus laevis oocytes (mRNA injection)
T1 sequence (P51575 1-399 R139A): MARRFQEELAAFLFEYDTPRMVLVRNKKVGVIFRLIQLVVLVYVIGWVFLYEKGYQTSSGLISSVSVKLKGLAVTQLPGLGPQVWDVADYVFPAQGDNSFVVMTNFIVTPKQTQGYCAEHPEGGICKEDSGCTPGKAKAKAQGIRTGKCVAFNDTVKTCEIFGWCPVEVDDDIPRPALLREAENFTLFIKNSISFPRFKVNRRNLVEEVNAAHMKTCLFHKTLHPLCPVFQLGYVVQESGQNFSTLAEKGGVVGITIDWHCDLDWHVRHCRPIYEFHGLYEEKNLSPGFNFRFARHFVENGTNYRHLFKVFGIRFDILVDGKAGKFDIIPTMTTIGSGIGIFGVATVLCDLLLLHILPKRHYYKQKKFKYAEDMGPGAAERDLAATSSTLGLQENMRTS
Description: Oocytes were purchased defolliculated from Ecocyte Bioscience in Barth’s Solution (88 mM NaCl, 1 mM KCl, 0.82 mM MgSO4, 0.33 mM Ca(NO3)2, 0.41 mM CaCl2, 2.4 mM NaHCO3, 5 mM Tris-HCl) supplemented with penicillin (100 U/mL) and streptomycin (100 µg/mL). Xenopus laevis oocytes were then injected with 50 nL of 100 ng/μL hP2X1 mRNA that was made from linearized full-length wild-type or mutant pcDNA 3.1x according to the protocol provided in the mMessage mMachine kit (Invitrogen). Injected oocytes were allowed to express for ~20 hours at 18 °C before recording was performed.
Data acquisition was performed using the Oocyte Clamp OC-725C amplifier and pClamp 8.2 software. Buffers were applied using a gravity fed RSC-200 Rapid Solution Changer that flows at ~5 mL/min. All experiments use Sutter filamented glass 10 cm in length with an inner diameter of 0.69 mm and an outer diameter of 1.2 mm to impale oocytes and clamp the holding voltage at −60 mV. Experiments were recorded in buffer containing 10 mM HEPES (pH 7.4), 140 mM NaCl, 5 mM KCl, 2 mM CaCl2, 2 mM MgCl2, and 10 mM glucose.
To test a dilution series of an antagonist at discrete concentrations, 10 µM ATP (2 mM ATP for K309A only) was first applied to evoke an initial maximum current. The oocyte was then washed with buffer for one minute, followed by one minute application of an antagonist test-concentration, and concluded by co-application of the same test concentration with 10 µM ATP (2 mM ATP for K309A). The antagonized signal was then normalized against the initial ATP excitatory signal. Each test concentration was performed in triplicate across different oocytes. The data was then fit to a nonlinear regression named “[inhibitor] vs. response – Variable slope (four parameters)” in Prism 9 to produce a sigmoidal curve and afford an IC50 value. Each singular condition was used to generate an average which is reported plus or minus its standard deviation between three discrete trials.

Nc1ncnc2c1ncn2[C@@H]1O[C@H](COP(=O)(O)OP(=O)(O)OP(=O)(O)O)[C@@H](O)[C@H]1O [ATP]
EC50 (P2X1): 500 to 1000 nM

O=C(Nc1cc(C(=O)Nc2ccc(S(=O)(=O)O)cc2S(=O)(=O)O)cc(C(=O)Nc2ccc(S(=O)(=O)O)cc2S(=O)(=O)O)c1)Nc1cc(C(=O)Nc2ccc(S(=O)(=O)O)cc2S(=O)(=O)O)cc(C(=O)Nc2ccc(S(=O)(=O)O)cc2S(=O)(=O)O)c1 [NF449, 4,4’,4”,4’’’-(carbonylbis(imino-5,1,3-benzenetriylbis(carbonylimino)))tetrakis-benzene-1,3-disulfonic acid]
Normalized Current (hP2X1 R139A; [NF449] 1.600E-09 M): 0.9525 and 0.8503 and 0.8408 | Normalized Current (hP2X1 R139A; [NF449] 2.000E-07 M): 0.2675 and 0.1529 | Normalized Current (hP2X1 R139A; [NF449] 3.200E-10 M): 1.089 and 0.9841 and 0.9268 | Normalized Current (hP2X1 R139A; [NF449] 4.000E-08 M): 0.6975 and 0.6688 and 0.5159 | Normalized Current (hP2X1 R139A; [NF449] 5.000E-06 M): 0.000000 | Normalized Current (hP2X1 R139A; [NF449] 8.000E-09 M): 0.8121 and 0.8025 and 0.7834
